Laboratory results taken from patent US12421253B2 (Mirati Therapeutics, Inc., priority 2020, dated 2025).

Experiments:
[1] = molecular target: T1, KRas^G12D (Homo sapiens, UniProt P01116, G12D); assay: KRas binding assay (TR-FRET displacement of Cy5 labelled tracer)
T1 construct: […]; biotin (biotinylated); purchased Accelegan Inc
Protocol: (§3) The ability of a compound to bind to KRas was measured using a TR-FRET displacement assay. […] After a 60-minute incubation at room temperature, the reaction was measured using a BMG LABTECH CLARIO star Plus via TR-FRET. […] The POC values were fit to a 4-parameter IC50 equation and the IC50 value reported.

[2] = molecular target: T2, KRas^G12R (Homo sapiens, UniProt P01116, G12R); assay: as above
T2 construct: […]; biotin (biotinylated); purchased Accelegan Inc
Protocol: as §3

[3] = molecular target: T3, KRas^G12V (Homo sapiens, UniProt P01116, G12V); assay: as above
T3 construct: […]; biotin (biotinylated); purchased Accelegan Inc
T3 sequence (P01116 1-169 isoform P01116-2 G12V): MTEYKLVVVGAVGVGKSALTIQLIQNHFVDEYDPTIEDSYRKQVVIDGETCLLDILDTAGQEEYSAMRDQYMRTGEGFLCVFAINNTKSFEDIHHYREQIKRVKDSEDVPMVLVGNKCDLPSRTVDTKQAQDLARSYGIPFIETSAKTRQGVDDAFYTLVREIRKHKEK
Protocol: as §3

[4] = tested on: AsPC-1 (G12D) cells, phospho-ERK; assay: Inhibition of KRas-mediated phosphorylation of ERK (phospho-ERK/GAPDH antibody detection, LI-COR); format: cell-based; conditions: Homo sapiens, ASPC1, 3 hours
Outline: (§1)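 Cells seeded 20,000/well, attached 12-14 h, then compound (0.5% DMSO) for 3 h. Formaldehyde-fixed, methanol-permeabilized cells stained for phospho-ERK (Thr202/Tyr204) and GAPDH; infrared imaging. Ratio expressed as % of DMSO control; IC50 from 4-parameter fit.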

[5] = tested on: NCI-H460 (Q61H) cells, phospho-ERK; assay: as above; format: cell-based; conditions: Homo sapiens, 3 hours
Outline: as §1

[6] = tested on: NCI-H727 (G12V) cells, phospho-ERK; assay: as above; format: cell-based; conditions: Homo sapiens, 3 hours
Outline: as §1

[7] = tested on: A549 cells, pERK; assay: Inhibition of KRas phosphorylation of ERK (Cisbio HTRF Advanced pERK assay); format: cell-based; conditions: Homo sapiens, 3 hrs, read-out: Inhibition (HTRF IC50 nM) of KRas-mediated Phosphorylation of ERK, A549
Outline: (§2)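 pERK measured by HTRF in lysates from cells treated 3 h with compound, 10 uM top, 3-fold steps, 10 doses, 0.8% DMSO final. Cells (6,000/well, RPMI 10% FBS) had been plated overnight at 37 °C; 0.2 uM trametinib defined minimum signal; antibody detection 2 h at room temperature.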

[8] = tested on: ASPC1 cells, pERK; assay: as above; format: cell-based; conditions: Homo sapiens, ASPC1, 3 h, AsPC-1 cells, read-out: Inhibition (HTRF IC50 nM) of KRas-mediated Phosphorylation of ERK, AsPC-1
Outline: as §2

[9] = tested on: H358 cells, pERK; assay: as above; format: cell-based; conditions: Homo sapiens, NCI-H358, 3 hrs, read-out: Inhibition (HTRF IC50 nM) of KRas-mediated Phosphorylation of ERK, H358
Outline: as §2

[10] = tested on: H460 cells, pERK; assay: as above; format: cell-based; conditions: Homo sapiens, NCI-H460, 3 hrs, read-out: Inhibition (HTRF IC50 nM) of KRas-mediated Phosphorylation of ERK, H460
Outline: as §2

[11] = tested on: H727 cells, pERK; assay: as above; format: cell-based; conditions: Homo sapiens, NCI-H727, 3 h, read-out: Inhibition (HTRF IC50 nM) of KRas-mediated Phosphorylation of ERK, H727
Outline: as §2

[12] = tested on: HCT116 cells, pERK; assay: as above; format: cell-based; conditions: Homo sapiens, HCT-116, 3 hrs, read-out: Inhibition (HTRF IC50 nM) of KRas-mediated Phosphorylation of ERK, HCT116
Outline: as §2

[13] = tested on: MKN1 cells, pERK; assay: as above; format: cell-based; conditions: Homo sapiens, MKN-1, 3 h, read-out: Inhibition (HTRF IC50 nM) of KRas-mediated Phosphorylation of ERK, MKN1
Outline: as §2

[14] = tested on: PSN1 cells, pERK; assay: as above; format: cell-based; conditions: Homo sapiens, PSN1, 3 h, read-out: Inhibition (HTRF IC50 nM) of KRas-mediated Phosphorylation of ERK, PSN1
Outline: as §2

[15] = tested on: A549 (G12S) cells, phospho-ERK; assay: Inhibition of KRas-mediated phosphorylation of ERK (phospho-ERK/GAPDH antibody detection, LI-COR); format: cell-based; conditions: Homo sapiens, 3 hours
Outline: as §1

[16] = tested on: HCT116 (G13D) cells, phospho-ERK; assay: as above; format: cell-based; conditions: Homo sapiens, HCT-116, 3 hours
Outline: as §1

[17] = tested on: NCI-H358 (G12C) cells, phospho-ERK; assay: as above; format: cell-based; conditions: Homo sapiens, 3 hours
Outline: as §1

[18] = tested on: PSN-1 (G12R) cells, phospho-ERK; assay: as above; format: cell-based; conditions: Homo sapiens, PSN1, 3 hours
Outline: as §1

T1 sequence (P01116 1-169 isoform P01116-2 G12D): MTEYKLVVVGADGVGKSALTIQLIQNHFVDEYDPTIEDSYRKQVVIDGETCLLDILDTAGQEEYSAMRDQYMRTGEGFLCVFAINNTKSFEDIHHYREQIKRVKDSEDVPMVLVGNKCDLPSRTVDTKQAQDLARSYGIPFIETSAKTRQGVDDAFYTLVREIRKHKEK
T2 sequence (P01116 1-169 isoform P01116-2 G12R): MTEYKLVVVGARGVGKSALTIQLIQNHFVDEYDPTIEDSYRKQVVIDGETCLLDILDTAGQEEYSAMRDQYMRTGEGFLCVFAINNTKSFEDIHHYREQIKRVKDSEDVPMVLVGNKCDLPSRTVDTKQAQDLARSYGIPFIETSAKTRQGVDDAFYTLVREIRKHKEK

SMILES	IC50 [1]	IC50 [2]	IC50 [3]	IC50 [4]	IC50 [5]	IC50 [6]	IC50 [7]	IC50 [8]	IC50 [9]	IC50 [10]	IC50 [11]	IC50 [12]	IC50 [13]	IC50 [14]	IC50 [15]	IC50 [16]	IC50 [17]	IC50 [18]
CCc1c(F)ccc2cc(O)cc(N3CCc4c(nc(OC[C@@]56CCCN5C[C@H](F)C6)nc4N4CCCn5nc(CO)cc5C4)C3)c12 [Example 34, 5-ethyl-6-fluoro-4-(2-(((2R,7aS)-2-fluorohexahydro-1H-pyrrolizin-7a-yl)methoxy)-4-(2-(hydroxymethyl)-7,8-dihydro-4H-pyrazolo[1,5-a][1,4]diazepin-5(6H)-yl)-5,6-dihydropyrido[3,4-d]pyrimidin-7(8H)-yl)naphthalen-2-ol]	≤ 2 nM	≤ 2 nM	≤ 2 nM	258 nM	774 nM	1040 nM	351 nM	31 nM	38 nM	784 nM	217 nM	1270 nM	134 nM	≥ 10000 nM				
CCc1c(F)ccc2cc(O)cc(N3CCc4c(nc(OC[C@@]56CCCN5C[C@H](F)C6)nc4N4CCOCC(C)(O)C4)C3)c12 (stereo partly drawn) [Example 20, 4-(7-(8-ethyl-7-fluoro-3-hydroxynaphthalen-1-yl)-2-(((2R,7aS)-2-fluorohexahydro-1H-pyrrolizin-7a-yl)methoxy)-5,6,7,8-tetrahydropyrido[3,4-d]pyrimidin-4-yl)-6-methyl-1,4-oxazepan-6-ol]	≤ 2 nM	52 nM	≤ 2 nM			747 nM									446 nM	860 nM	314 nM	> 10000 nM
CCc1c(F)ccc2cc(O)cc(N3CCc4c(nc(OC[C@@]56CCCN5C[C@H](F)C6)nc4N4CCCC5(C4)NC(=O)NC5=O)C3)c12 (stereo partly drawn) [Example 59, 7-(7-(8-ethyl-7-fluoro-3-hydroxynaphthalen-1-yl)-2-(((2R,7aS)-2-fluorohexahydro-1H-pyrrolizin-7a-yl)methoxy)-5,6,7,8-tetrahydropyrido[3,4-d]pyrimidin-4-yl)-1,3,7-triazaspiro[4.5]decane-2,4-dione]	≤ 2 nM	≤ 2 nM	≤ 2 nM	44 nM	17 nM	181 nM	3 nM	8 nM	4 nM	9 nM	40 nM	16 nM	5 nM	25.3 nM				
CCc1c(F)ccc2cc(O)cc(N3CCc4c(nc(OCC56CCCN5CCC6)nc4N4CCCn5nc(C(=O)N(C)C)cc5C4)C3)c12 [Example 175, 5-[7-(8-ethyl-7-fluoro-3-hydroxy-1-naphthyl)-2-(1,2,3,5,6,7-hexahydropyrrolizin-8-ylmethoxy)-6,8-dihydro-5H-pyrido[3,4-d]pyrimidin-4-yl]-N,N-dimethyl-4,6,7,8-tetrahydropyrazolo[1,5-a][1,4]diazepine-2-carboxamide]	≤ 2 nM	≤ 2 nM	≤ 2 nM				326 nM	53 nM	50 nM	750 nM	85 nM	1120 nM	58 nM	7860 nM				
CN(C)C(=O)c1cc2n(n1)CCCN(c1nc(OC[C@@]34CCCN3C[C@H](F)C4)nc3c1CCN(c1cc(O)cc4ccc(F)c(Br)c14)C3)C2 [Example 218, 5-(7-(8-bromo-7-fluoro-3-hydroxynaphthalen-1-yl)-2-(((2R,7aS)-2-fluorohexahydro-1H-pyrrolizin-7a-yl)methoxy)-5,6,7,8-tetrahydropyrido[3,4-d]pyrimidin-4-yl)-N,N-dimethyl-5,6,7,8-tetrahydro-4H-pyrazolo[1,5-a][1,4]diazepine-2-carboxamide]	≤ 2 nM	≤ 2 nM	≤ 2 nM				294 nM	46 nM	61 nM	845 nM	86 nM	1340 nM	85 nM	6070 nM				
O=S1(=O)NCC2(CCCN(c3nc(OC[C@@]45CCCN4C[C@H](F)C5)nc4c3CCN(c3cc(O)cc5ccc(F)c(Cl)c35)C4)C2)N1 (stereo partly drawn) [Example 72, 7-(7-(8-chloro-7-fluoro-3-hydroxynaphthalen-1-yl)-2-(((2R,7aS)-2-fluorohexahydro-1H-pyrrolizin-7a-yl)methoxy)-5,6,7,8-tetrahydropyrido[3,4-d]pyrimidin-4-yl)-2-thia-1,3,7-triazaspiro[4.5]decane 2,2-dioxide]	≤ 2 nM	≤ 2 nM	≤ 2 nM				32 nM	10 nM	8 nM	59 nM	59 nM	126 nM	7 nM	148 nM				
O=C1NCC2(CCCN(c3nc(OC[C@@]45CCCN4C[C@H](F)C5)nc4c3CCN(c3cc(O)cc5ccc(F)c(Br)c35)C4)C2)N1 (stereo partly drawn) [Example 216, 7-(7-(8-bromo-7-fluoro-3-hydroxynaphthalen-1-yl)-2-(((2R,7aS)-2-fluorohexahydro-1H-pyrrolizin-7a-yl)methoxy)-5,6,7,8-tetrahydropyrido[3,4-d]pyrimidin-4-yl)-1,3,7-triazaspiro[4.5]decan-2-one]	≤ 2 nM	3 nM	≤ 2 nM				206 nM	92 nM	27 nM	293 nM	300 nM	531 nM	19 nM	1260 nM				
CCc1c(F)ccc2cc(O)cc(N3CCc4c(nc(OC[C@@]56CCCN5C[C@H](F)C6)nc4N4CCCC5(CNC(=O)N5)C4)C3)c12 (stereo partly drawn) [Example 62, 7-(7-(8-ethyl-7-fluoro-3-hydroxynaphthalen-1-yl)-2-(((2R,7aS)-2-fluorohexahydro-1H-pyrrolizin-7a-yl)methoxy)-5,6,7,8-tetrahydropyrido[3,4-d]pyrimidin-4-yl)-1,3,7-triazaspiro[4.5]decan-2-one]	≤ 2 nM	≤ 2 nM	≤ 2 nM				25 nM	15 nM	11 nM	69 nM	81 nM	125 nM	4 nM	325 nM				
CCc1c(F)ccc2cc(O)cc(N3CCc4c(nc(OC[C@@]56CCCN5C[C@H](F)C6)nc4NCc4cccnc4N)C3)c12 [Example 17, 4-(4-(((2-aminopyridin-3-yl)methyl)amino)-2-(((2R,7aS)-2-fluorohexahydro-1H-pyrrolizin-7a-yl)methoxy)-5,6-dihydropyrido[3,4-d]pyrimidin-7(8H)-yl)-5-ethyl-6-fluoronaphthalen-2-ol]	26 nM	≤ 2 nM	≤ 2 nM			1130 nM									189 nM	10000 nM	232 nM	> 10000 nM
CCc1c(F)ccc2cc(O)cc(N3CCc4c(nc(OCC5(CN(C)C)CC5)nc4N4CCC[C@@](C)(O)C4)C3)c12 [Example 199, (R)-1-(2-((1-((dimethylamino)methyl)cyclopropyl)methoxy)-7-(8-ethyl-7-fluoro-3-hydroxynaphthalen-1-yl)-5,6,7,8-tetrahydropyrido[3,4-d]pyrimidin-4-yl)-3-methylpiperidin-3-ol]	≤ 2 nM	≤ 2 nM	≤ 2 nM				201 nM	43 nM	65 nM	242 nM	262 nM	441 nM	31 nM	2500 nM				
